Literature values as cited in patent publication US20260131008A1, “HYALURONIC ACID BASED DRUG DELIVERY SYSTEMS” (priority 2023, published 2026).

Settings: in vivo

hyaluronic acid [Uncrosslinked HA]
vitreal half-life: weeks
vitreal half-life, shortest estimates: 48 h
